According to PMC7662393, “Comprehensive Characterization of Linalool-HP-β-Cyclodextrin Inclusion Complexes” (Molecules, 2020):
Converted amounts (≈) assume the structure as drawn. Like-named read-outs stand apart in the source and are kept apart here.

Tests used:
[1] = design: method as in PMID 25298799; settings: RAMEB; cited from earlier work
[2] = design: method as in doi:10.1002/ffj.3197; settings: JECFA (FAO/WHO); cited from earlier work
[3] = Aqueous solubility of linalool (S0) from phase solubility study, ultrasound equilibrium; format: physicochemical; settings: for solubility at 60 min: read-out: Recovery aqueous solubility (S0)
Method: (§1) The study of linalool solubility in the presence of CDs was carried out according to the method described by Higuchi and Connors in 1965 with slight modifications. CDs were dissolved in buffered solutions at different pHs: 3.5, 5.5 (100 mmol L^−1 sodium acetate buffer), 6.5, 7.0 (100 mmol L^−1 sodium phosphate buffer) and 8.5 (100 mmol L^−1 sodium borate buffer). The α- and HP-β-CDs were prepared up to 100 mmol L^−1. However, β-CDs were prepared up to 15 mmol L^−1, since this is their limit of aqueous solubility.
(§2) A saturating concentration of linalool was added to each CDs solution and they were kept in an ultrasound bath for 60 min in the dark, at 25 °C, until equilibrium was reached. Subsequently, the solutions were filtered through a 0.45 µm nylon membrane filter (Chromafil, Macherey-Nagel, Düren, Germany) to remove excess linalool.
(§3) Once filtered, the solutions were diluted with ethanol until reach ethanol 80% (solution:ethanol, 20:80, v:v) to quantify by gas chromatography-mass spectrometry (GC-MS) the linalool concentration in each solution. Phase solubility diagrams were made in triplicate.
(§4) The quantification of linalool was carried out by using a Shimadzu GC-QP 2010 (Kyoto, Japan) gas chromatographer combined with a mass spectrometer. Helium was used as carrier gas, at a flow rate of 0.5 mL min^−1. A ω-WAX 250 fused silica supelco column (30 m × 0.25 mm × 0.25 µm thickness), was used. The temperature conditions were as follows: initial temperature at 70 °C, raised to 160 °C at 4 °C min^−1, raised to 280 °C at 30 °C min^−1, and maintained finally at 280 °C for 6 min. Injector temperature was 250 °C and injector mode was Split 1:20.
(§5) The peak area of each sample was used for linalool quantification (mmol L^−1), by interpolating in the calibration curve obtained using a standard of linalool, defined by equation: Area = […] [linalool (mmol L^−1)] and (R^2 = 0.9989) for linalool concentration from 0.0 to 0.5 mmol L^−1.

[4] = Phase solubility study of linalool complexation with α-CDs; format: physicochemical
Method: as §1, §2, §3, §4, §5
(§6) Kc between linalool and CDs was calculated from the slope of the phase solubility profile and the solubility of linalool in aqueous solution (S0) by using Equation (1):(1) Kc (Lmol^−1)=slope/S0(1−slope)
(§7) CE is the ratio between dissolved complex and free CDs concentration. […] was calculated by using Equation (2):(2) CE=[disolved−complex]/[CDs]=S0∗Kc
(§8) The molar ratio (MR) linalool:CDs, was calculated using CE values with Equation (3). (3) linalool:CDs=1:(1+1/CE)

[5] = Phase solubility study of linalool complexation with HP-β-CDs (ultrasound); format: physicochemical
Method: as §1, §2, §3, §4, §5, §6, §7, §8

[6] = Phase solubility study of linalool complexation with β-CDs; format: physicochemical
Method: as §1, §2, §3, §4, §5, §6, §7, §8

[7] = hydroxyl group at C3; no reference or method printed; cited from earlier work
[8] = Phase solubility of linalool with HP-β-CDs by microwave irradiation (MWI); format: physicochemical; settings: pH 7.0
Method: The encapsulation of linalool with HP-β-CDs by using MWI was carried out following the method described by Hernández-Sánchez et al. in 2017 [32]. Aqueous solutions of HP-β-CDs (100 mL, 0–100 mmol L^−1) were irradiated with microwave (LG Grill Wavedom, LG Electronics Las Rozas, Spain), at 700 W for 30 s, at 10 s intervals, until reaching a temperature of 70 °C in the solution. Later on, linalool was added to each aqueous solution, in a molar ratio of 1:1 and then, were irradiated again for 30 s at 10 s intervals, until reaching again 70 °C. Subsequently, the samples were shaken and kept for 12 h in dark sealed vials at 25 °C, before dividing them into two groups. After that, the first group, named 24 h MWI, was filtered using 0.45 µm nylon membrane filter (Chromafil, Macherey-Nagel). The second group, named 48 h MWI, were irradiated again, until reaching 70 °C, and maintain 12 h in the dark before they were filtered through a 0.45 µm nylon filter to remove linalool excess. Once filtered, both groups of samples were diluted with ethanol (20:80, v:v) until the GC-MS quantification of the linalool. All measurements were made in triplicate.
as §4, §5

[9] = design: method as in PMID 25298799; settings: HP-β-CDs; cited from earlier work
[10] = design: method as in PMID 25298799; settings: CRYSMEB; cited from earlier work

SMILES: COc1cc(/C=C/C(=O)O)ccc1O [ferulic acid]
- Complexation efficiency (CE) [1]: 1.79

SMILES: C=CC(C)(O)CCC=C(C)C (stereo not drawn) [linalool, 3,7-dimethyl-1,6-octadien-3-ol]
- Allowable daily intake (ADI) [2]: 0–0.5 mg kg^−1 of body weight/day
- solubility at 60 min ([3]; aqueous buffer, thermodynamic from solid, pH 6.5, 25 °C): 8.16 ± 0.11 mM (≈ 1260 µg/mL)
- solubility at 60 min ([3]; aqueous buffer, thermodynamic from solid, pH 7.0, 25 °C): 7.37 mM (≈ 1140 µg/mL)
- Recovery aqueous solubility (S0) ([3]; pH 3.5, 25 °C): 9.34 ± 0.20 mM
- solubility at 60 min ([3]; pH 5.5, 25 °C): 9.05 ± 0.16 mM (≈ 1400 µg/mL)
- Recovery aqueous solubility (S0) ([3]; pH 7.0, 25 °C): 7.37 ± 0.03 mM
- solubility at 60 min ([3]; pH 8.5, 25 °C): 9.33 ± 0.13 mM (≈ 1440 µg/mL)
- solubility at 60 min ([3]; sodium acetate buffer, pH 3.5, 25 °C): 9.34 mM (≈ 1440 µg/mL)
- Complexation efficiency (CE) ([4]; pH 3.5): 0.159
- Complexation constant (KC) ([4]; pH 3.5, 25 °C): 17 ± 6 L/mol
- Complexation efficiency (CE) ([4]; pH 5.5): 0.226
- Complexation constant (KC) ([4]; pH 5.5, 25 °C): 25 ± 4 L/mol
- Complexation efficiency (CE) ([4]; pH 6.5): 0.987
- Complexation constant (KC) ([4]; pH 6.5, 25 °C): 121 ± 9 L/mol
- Complexation efficiency (CE) ([4]; pH 7.0): 1.090
- Complexation constant (KC) ([4]; pH 7.0, 25 °C): 148 ± 12 L/mol
- Complexation efficiency (CE) ([4]; pH 8.5): 0.979
- Complexation constant (KC) ([4]; pH 8.5, 25 °C): 105 ± 8 L/mol
- Linalool concentration solved ([5]; 100 mM HP-β-CDs, US, pH 7.0): 96.72 mM
- Linalool concentration solved, US relative to MWI ([5]; 100 mM HP-β-CDs, pH 7.0): 7 fold
- Increase in solubility of linalool ([5]; HP-β-CDs, US as energy source, volume 100 mL, pH 7.0): 13.1 fold
- Complexation efficiency (CE) ([5]; HP-β-CDs, pH 3.5): 0.411
- Complexation constant (KC) ([5]; HP-β-CDs, pH 3.5, 25 °C): 44 ± 6 L/mol
- Complexation efficiency (CE) ([5]; HP-β-CDs, pH 5.5): 0.443
- Complexation constant (KC) ([5]; HP-β-CDs, pH 5.5, 25 °C): 49 ± 7 L/mol
- Complexation efficiency (CE) ([5]; HP-β-CDs, pH 6.5): 1.836
- Complexation constant (KC) ([5]; HP-β-CDs, pH 6.5, 25 °C): 225 ± 14 L/mol
- Complexation efficiency (CE) ([5]; HP-β-CDs, pH 7.0): 6.788
- Complexation constant (KC) ([5]; HP-β-CDs, pH 7.0, 25 °C): 921 ± 21 L/mol
- Complexation efficiency (CE) ([5]; HP-β-CDs, pH 8.5): 5.215
- Complexation constant (KC) ([5]; HP-β-CDs, pH 8.5, 25 °C): 559 ± 17 L/mol
- KC value for HP-β-CDs relative to that for β-CDs ([5]; neutral pH): 4 fold
- Complexation efficiency (CE) ([6]; pH 3.5): 0.261
- Complexation constant (KC) ([6]; pH 3.5, 25 °C): 28 ± 4 L/mol
- Complexation efficiency (CE) ([6]; pH 5.5): 0.670
- Complexation constant (KC) ([6]; pH 5.5, 25 °C): 74 ± 5 L/mol
- Complexation efficiency (CE) ([6]; pH 6.5): 0.743
- Complexation constant (KC) ([6]; pH 6.5, 25 °C): 91 ± 4 L/mol
- Complexation efficiency (CE) ([6]; pH 7.0): 1.776
- Complexation constant (KC) ([6]; pH 7.0, 25 °C): 241 ± 26 L/mol
- Complexation efficiency (CE) ([6]; pH 8.5): 0.149
- Complexation constant (KC) ([6]; pH 8.5, 25 °C): 16 ± 5 L/mol
- pKa [7]: 18.46
- Linalool concentration solved ([8]; 100 mM HP-β-CDs, MWI): 13.61 mM
- Increase in solubility of linalool ([8]; HP-β-CDs, MWI as energy source, volume 100 mL): 18.2 fold
- solubility thermodynamic ([8]; aqueous solution without HP-β-CDs (S0), 25 °C, water, thermodynamic from solid, MWI): 0.75 mM (≈ 116 µg/mL)

SMILES: O=C(O)/C=C/c1ccc(O)cc1 [coumaric acid]
- Complexation efficiency (CE) [9]: 2.30
- Complexation efficiency (CE) [1]: 2.57
- Complexation efficiency (CE) [10]: 1.89

SMILES: C=CCc1ccc(O)c(OC)c1 [eugenol]
- Complexation efficiency (CE) [9]: 2.81
